Experimental data published in US9499553B2 (CHUGAI SEIYAKU KABUSHIKI KAISHA, priority 2013, dated 2016).

Target: T1, human NaPi-IIb (Homo sapiens, UniProt O95436)
T1 construct: expressed in transfected cells
T1 sequence (O95436 1-690): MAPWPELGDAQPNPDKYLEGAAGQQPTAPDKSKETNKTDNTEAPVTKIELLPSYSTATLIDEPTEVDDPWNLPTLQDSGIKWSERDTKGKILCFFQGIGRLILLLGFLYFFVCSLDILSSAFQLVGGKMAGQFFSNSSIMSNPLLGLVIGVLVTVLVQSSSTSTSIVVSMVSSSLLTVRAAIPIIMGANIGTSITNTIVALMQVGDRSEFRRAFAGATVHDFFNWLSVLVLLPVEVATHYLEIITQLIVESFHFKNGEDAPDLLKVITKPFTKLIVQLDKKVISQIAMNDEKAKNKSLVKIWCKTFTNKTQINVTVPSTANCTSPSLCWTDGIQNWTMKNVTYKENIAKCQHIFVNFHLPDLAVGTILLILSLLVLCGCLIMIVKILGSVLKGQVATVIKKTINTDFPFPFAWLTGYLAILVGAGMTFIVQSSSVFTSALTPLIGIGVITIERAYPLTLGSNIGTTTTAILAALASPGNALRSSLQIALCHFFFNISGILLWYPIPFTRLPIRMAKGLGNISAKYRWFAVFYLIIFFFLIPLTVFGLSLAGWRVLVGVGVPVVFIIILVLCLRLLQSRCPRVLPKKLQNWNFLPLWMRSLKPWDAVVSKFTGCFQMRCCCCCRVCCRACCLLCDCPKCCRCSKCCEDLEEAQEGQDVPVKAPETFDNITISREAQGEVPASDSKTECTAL
Test: Inhibitory effect on 33PO4 uptake into human NaPi-IIb-expressing CHO cells
Format: cell-based
Conditions: read-out: IC50
How it was run: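 Uptake of ³³PO4 was measured by scintillation counting after ice-cold buffer A washes. Cells were CHO stably expressing human NaPi-IIb, seeded overnight, and exposed to ³³PO4 in buffer A at room temperature.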

SMILES	IC50
CC(C)(C)[C@H]1C(O)=C(C(=O)Nc2ccc(Cl)cc2-c2ccc(C(F)(F)F)nc2)C(=O)N(Cc2cccc(F)c2F)N1CC(F)(F)F [Example 247]	8.2 µM
CC(C)(C)[C@H]1C(O)=C(C(=O)Nc2cc(F)c(Br)c(F)c2)C(=O)N(Cc2cccc(F)c2F)N1CC(F)(F)F [Example 248]	17.6 µM
CC(C)[C@@H]1C(O)=C(C(=O)Nc2ccc(C(F)(F)F)cc2-c2cc(C(F)(F)F)ncn2)C(=O)N(Cc2cccc(F)c2F)N1C [Example 249]	9.8 µM
CC(C)[C@@H]1C(O)=C(C(=O)Nc2ccc(Cl)cc2-c2cc(C(F)(F)F)ncn2)C(=O)N(Cc2cccc(F)c2F)N1C [Example 250]	17.9 µM
CC(C)[C@@H]1C(O)=C(C(=O)Nc2ccc(Cl)cc2-c2ccc(C(F)(F)F)nc2)C(=O)N(Cc2cccc(F)c2F)N1C [Example 251]	7.6 µM
CC(C)[C@H]1C(O)=C(C(=O)Nc2ccc(C(F)(F)F)cc2-c2cc(C(F)(F)F)ncn2)C(=O)N(Cc2cccc(F)c2F)N1C [Example 252]	9.5 µM
CC(C)[C@H]1C(O)=C(C(=O)Nc2ccc(C(F)(F)F)cc2-c2ccc(C(F)(F)F)nc2)C(=O)N(Cc2cccc(F)c2F)N1C [Example 253]	4.4 µM
CC(C)[C@H]1C(O)=C(C(=O)Nc2cc(F)c(Br)c(F)c2)C(=O)N(Cc2cccc(F)c2F)N1C [Example 254]	9.7 µM
CN1N(Cc2cccc(F)c2F)C(=O)C(C(=O)Nc2ccc(Cl)cc2-c2cc(C(F)(F)F)ncn2)=C(O)C12CCC2 [Example 255]	9.8 µM
CN1N(Cc2cccc(F)c2F)C(=O)C(C(=O)Nc2cc(F)c(Br)c(F)c2)=C(O)C12CCC2 [Example 257]	6 µM
CN1N(Cc2cccc(F)c2F)C(=O)C(C(=O)Nc2ccc(Br)c(C(F)(F)F)n2)=C(O)C12CCC2 [Example 258]	2.7 µM
Cc1nc(NC(=O)C2=C(O)C3(CCC3)N(C)N(Cc3cccc(F)c3F)C2=O)ccc1Br [Example 259]	10 µM
CN1N(Cc2cccc(F)c2F)C(=O)C(C(=O)Nc2ccc(C(F)(F)F)cc2-c2cc(C(F)(F)F)ncn2)=C(O)C12CCCC2 [Example 260]	6.4 µM
CN1N(Cc2cccc(F)c2F)C(=O)C(C(=O)Nc2ccc(Cl)cc2-c2cc(C(F)(F)F)ncn2)=C(O)C12CCCC2 [Example 261]	7.7 µM
Cc1nc(NC(=O)C2=C(O)C3(CCCC3)N(C)N(Cc3cccc(F)c3F)C2=O)ccc1Br [Example 262]	9.9 µM
CN1N(Cc2cccc(F)c2F)C(=O)C(C(=O)Nc2ccc(Br)c(C(F)(F)F)n2)=C(O)C12CCCC2 [Example 263]	3 µM
CN1[C@@H](C(C)(C)C)C(O)=C(C(=O)Nc2ccc(C(F)(F)F)cc2C(F)(F)F)C(=O)N1Cc1ccc(OCCN2CCOCC2)c(F)c1F [Example 277]	17.8 µM
Cc1c(-c2cc(C(F)(F)F)ccc2NC(=O)C2=C(O)[C@H](C(C)(C)C)N(C)N(Cc3ccc(OCCN4CCOCC4)c(F)c3F)C2=O)ncnc1C(F)(F)F [Example 278]	6.6 µM
Cc1c(-c2cc(C(F)(F)F)ccc2NC(=O)C2=C(O)C3(CCCCC3)N(C)N(Cc3ccc(OCCN4CCOCC4)c(F)c3F)C2=O)ncnc1C(F)(F)F [Example 296]	10 µM
CN1N(Cc2ccc(OCCN3CCOCC3)c(F)c2F)C(=O)C(C(=O)Nc2ccc(Br)c(C(F)(F)F)n2)=C(O)C12CCCCC2 [Example 298]	> 30 µM
CC1(C)C(O)=C(C(=O)Nc2ccc(C(F)(F)F)cc2-c2cc(C(F)(F)F)ncn2)C(=O)N(Cc2cccc(F)c2F)N1c1ccccc1 [Example 299]	18.8 µM
CN1N(Cc2cccc(F)c2F)C(=O)C(C(=O)Nc2ccc(C(F)(F)F)cc2-c2cc(C(F)(F)F)ncn2)=C(O)C12CCC2 [Example 300]	9.3 µM

More lines, now with the values ahead:

IC50	SMILES
4.4 µM	CN1N(Cc2cccc(F)c2F)C(=O)C(C(=O)Nc2ccc(Cl)cc2-c2ccc(C(F)(F)F)nc2)=C(O)C12CCC2 [Example 256]
13.3 µM	CN1[C@@H](C(C)(C)C)C(O)=C(C(=O)Nc2ccc(Cl)cc2-c2cc(C(F)(F)F)ncn2)C(=O)N1Cc1ccc(OCCN2CCOCC2)c(F)c1F [Example 265, (3S)-3-tert-Butyl-N-[4-chloro-2-[6-(trifluoromethyl)pyrimidin-4-yl]phenyl]-1-[[2,3-difluoro-4-(2-morpholin-4-ylethoxy)phenyl]methyl]-4-hydroxy-2-methyl-6-oxo-3H-pyridazine-5-carboxamide]
11.6 µM	CN1[C@@H](C(C)(C)C)C(O)=C(C(=O)Nc2ccc(C(F)(F)F)cc2-c2ccc(C(F)(F)F)nc2)C(=O)N1Cc1ccc(OCCN2CCOCC2)c(F)c1F [Example 266]
7.4 µM	CSc1ccc(-c2cc(C(F)(F)F)ccc2NC(=O)C2=C(O)[C@H](C(C)(C)C)N(C)N(Cc3ccc(OCCN4CCOCC4)c(F)c3F)C2=O)cn1 [Example 268]
17.3 µM	CN1[C@@H](C(C)(C)C)C(O)=C(C(=O)Nc2ccc(C(F)(F)F)cc2-c2ccnc(C#N)c2)C(=O)N1Cc1ccc(OCCN2CCOCC2)c(F)c1F [Example 271]
19.5 µM	CN1[C@@H](C(C)(C)C)C(O)=C(C(=O)Nc2ccc(Cl)cc2-c2cc(C#N)ncn2)C(=O)N1Cc1ccc(OCCN2CCOCC2)c(F)c1F [Example 272]
13.2 µM	CN1[C@@H](C(C)(C)C)C(O)=C(C(=O)Nc2cnc(C(F)(F)F)nc2-c2ccc(C(F)(F)F)nc2)C(=O)N1Cc1ccc(OCCN2CCOCC2)c(F)c1F [Example 273]
17 µM	Cc1c(C#N)ncnc1-c1cc(Cl)ccc1NC(=O)C1=C(O)[C@H](C(C)(C)C)N(C)N(Cc2ccc(OCCN3CCOCC3)c(F)c2F)C1=O [Example 274]
16.8 µM	Cc1c(Cl)ncnc1-c1cc(Cl)ccc1NC(=O)C1=C(O)[C@H](C(C)(C)C)N(C)N(Cc2ccc(OCCN3CCOCC3)c(F)c2F)C1=O [Example 275]
15.8 µM	Cc1c(Cl)ncnc1-c1cc(C(F)(F)F)ccc1NC(=O)C1=C(O)[C@H](C(C)(C)C)N(C)N(Cc2ccc(OCCN3CCOCC3)c(F)c2F)C1=O [Example 276]
11.9 µM	CC(C)[C@H]1C(O)=C(C(=O)Nc2ccc(C(F)(F)F)cc2-c2ccc(C(F)(F)F)nc2)C(=O)N(Cc2ccc(OCCN3CCOCC3)c(F)c2F)N1C [Example 280]
18.8 µM	CC(C)[C@H]1C(O)=C(C(=O)Nc2ccc(Cl)cc2-c2ccc(C(F)(F)F)nc2)C(=O)N(Cc2ccc(OCCN3CCOCC3)c(F)c2F)N1C [Example 281]
11.1 µM	CN1N(Cc2ccc(OCCN3CCOCC3)c(F)c2F)C(=O)C(C(=O)Nc2ccc(C(F)(F)F)cc2-c2ccc(C(F)(F)F)nc2)=C(O)C12CCC2 [Example 282]
17.7 µM	Cc1c(C#N)ncnc1-c1cc(C(F)(F)F)ccc1NC(=O)C1=C(O)C2(CCC2)N(C)N(Cc2ccc(OCCN3CCOCC3)c(F)c2F)C1=O [Example 283]
7.8 µM	CN1N(Cc2ccc(OCCN3CCOCC3)c(F)c2F)C(=O)C(C(=O)Nc2ccc(C(F)(F)F)cc2-c2ncnc(C(F)(F)F)c2Cl)=C(O)C12CCC2 [Example 284]
8.5 µM	Cc1c(-c2cc(C(F)(F)F)ccc2NC(=O)C2=C(O)C3(CCC3)N(C)N(Cc3ccc(OCCN4CCOCC4)c(F)c3F)C2=O)ncnc1C(F)(F)F [Example 285]
15.8 µM	CN1N(Cc2ccc(OCCN3CCOCC3)c(F)c2F)C(=O)C(C(=O)Nc2ccc(Cl)cc2-c2cc(C(F)(F)F)ncn2)=C(O)C12CCCC2 [Example 286]
8 µM	CN1N(Cc2ccc(OCCN3CCOCC3)c(F)c2F)C(=O)C(C(=O)Nc2ccc(C(F)(F)F)cc2-c2ccc(C(F)(F)F)nc2)=C(O)C12CCCC2 [Example 287]
11 µM	CN1N(Cc2ccc(OCCN3CCOCC3)c(F)c2F)C(=O)C(C(=O)Nc2ccc(Cl)cc2-c2ccc(C(F)(F)F)nc2)=C(O)C12CCCC2 [Example 288]
16.3 µM	CSc1ccc(-c2cc(C(F)(F)F)ccc2NC(=O)C2=C(O)C3(CCCC3)N(C)N(Cc3ccc(OCCN4CCOCC4)c(F)c3F)C2=O)cn1 [Example 289]
7 µM	Cc1c(-c2cc(C(F)(F)F)ccc2NC(=O)C2=C(O)C3(CCCC3)N(C)N(Cc3ccc(OCCN4CCOCC4)c(F)c3F)C2=O)ncnc1C(F)(F)F [Example 290]
14.7 µM	CCC1(CC)C(O)=C(C(=O)Nc2ccc(C(F)(F)F)cc2-c2cc(C(F)(F)F)ncn2)C(=O)N(Cc2ccc(OCCN3CCOCC3)c(F)c2F)N1C [Example 291]
18.4 µM	CCC1(CC)C(O)=C(C(=O)Nc2ccc(Cl)cc2-c2cc(C(F)(F)F)ncn2)C(=O)N(Cc2ccc(OCCN3CCOCC3)c(F)c2F)N1C [Example 292]
10.7 µM	CCC1(CC)C(O)=C(C(=O)Nc2ccc(C(F)(F)F)cc2-c2ccc(C(F)(F)F)nc2)C(=O)N(Cc2ccc(OCCN3CCOCC3)c(F)c2F)N1C [Example 293]
13.4 µM	CCC1(CC)C(O)=C(C(=O)Nc2ccc(Cl)cc2-c2ccc(C(F)(F)F)nc2)C(=O)N(Cc2ccc(OCCN3CCOCC3)c(F)c2F)N1C [Example 294]
17 µM	CN1N(Cc2ccc(OCCN3CCOCC3)c(F)c2F)C(=O)C(C(=O)Nc2ccc(C(F)(F)F)cc2-c2cc(C(F)(F)F)ncn2)=C(O)C12CCCCC2 [Example 295]
18.3 µM	CN1N(Cc2ccc(OCCN3CCOCC3)c(F)c2F)C(=O)C(C(=O)Nc2ccc(Cl)cc2-c2cc(C(F)(F)F)ncn2)=C(O)C12CCCCC2 [Example 297]
